PubChem BioAssay (NCI)
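Grown in 96-well plates, cells were treated for 48 hours with each compound at five concentrations. Insufficient inhibition: endpoint recorded as highest concentration tested. TGI marks complete inhibition of growth.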

Key:
Assay in all cases: NCI tumour cell line growth inhibition, 48 h
786-0 renal = tested on: 786-0 renal
A549 NSCLC = tested on: A549 NSCLC
ACHN renal = tested on: ACHN renal
CAKI-1 renal = tested on: CAKI-1 renal
CCRF-CEM leukemia = tested on: CCRF-CEM leukemia
COLO 205 colon = tested on: COLO 205 colon
DLD-1 colon = tested on: DLD-1 colon
DMS 114 small cell lung = tested on: DMS 114 small cell lung
DMS 273 small cell lung = tested on: DMS 273 small cell lung
EKVX NSCLC = tested on: EKVX NSCLC
HCC-2998 colon = tested on: HCC-2998 colon
HCT-116 colon = tested on: HCT-116 colon
HCT-15 colon = tested on: HCT-15 colon
HL-60(TB) leukemia = tested on: HL-60(TB) leukemia
HOP-18 NSCLC = tested on: HOP-18 NSCLC
HOP-62 NSCLC = tested on: HOP-62 NSCLC
HT29 colon = tested on: HT29 colon
IGROV1 ovarian = tested on: IGROV1 ovarian
K-562 leukemia = tested on: K-562 leukemia
KM12 colon = tested on: KM12 colon
KM20L2 colon = tested on: KM20L2 colon
LOX IMVI melanoma = tested on: LOX IMVI melanoma
LXFL 529 NSCLC = tested on: LXFL 529 NSCLC
M14 melanoma = tested on: M14 melanoma
M19-MEL melanoma = tested on: M19-MEL melanoma
MALME-3M melanoma = tested on: MALME-3M melanoma
MOLT-4 leukemia = tested on: MOLT-4 leukemia
NCI-H226 lung = tested on: NCI-H226 lung
NCI-H23 lung = tested on: NCI-H23 lung
NCI-H460 lung = tested on: NCI-H460 lung
NCI-H522 lung = tested on: NCI-H522 lung
OVCAR-3 ovarian = tested on: OVCAR-3 ovarian
OVCAR-4 ovarian = tested on: OVCAR-4 ovarian
OVCAR-5 ovarian = tested on: OVCAR-5 ovarian
OVCAR-8 ovarian = tested on: OVCAR-8 ovarian
RPMI-8226 leukemia = tested on: RPMI-8226 leukemia
RXF 393 renal = tested on: RXF 393 renal
SF-268 CNS = tested on: SF-268 CNS
SF-295 CNS = tested on: SF-295 CNS
SF-539 CNS = tested on: SF-539 CNS
SK-MEL-2 melanoma = tested on: SK-MEL-2 melanoma
SK-MEL-28 melanoma = tested on: SK-MEL-28 melanoma
SK-MEL-5 melanoma = tested on: SK-MEL-5 melanoma
SK-OV-3 ovarian = tested on: SK-OV-3 ovarian
SN12C renal = tested on: SN12C renal
SNB-19 CNS = tested on: SNB-19 CNS
SNB-75 CNS = tested on: SNB-75 CNS
SNB-78 CNS = tested on: SNB-78 CNS
TK-10 renal = tested on: TK-10 renal
U251 CNS = tested on: U251 CNS
UACC-257 melanoma = tested on: UACC-257 melanoma
UACC-62 melanoma = tested on: UACC-62 melanoma
UO-31 renal = tested on: UO-31 renal
SR leukemia = tested on: SR leukemia
SW-620 colon = tested on: SW-620 colon
XF 498 CNS = tested on: XF 498 CNS

Measured: TGI

OC12CC/C(=N/OCc3ccccc3)CC1c1ccccc12 (centres undefined)
> 100 µM: 786-0 renal | A549 NSCLC | ACHN renal | CAKI-1 renal | CCRF-CEM leukemia | COLO 205 colon | DLD-1 colon | DMS 114 small cell lung | DMS 273 small cell lung | EKVX NSCLC | HCC-2998 colon | HCT-116 colon | HCT-15 colon | HL-60(TB) leukemia | HOP-18 NSCLC | HOP-62 NSCLC | HT29 colon | IGROV1 ovarian | K-562 leukemia | KM12 colon | KM20L2 colon | LOX IMVI melanoma | LXFL 529 NSCLC | M14 melanoma | M19-MEL melanoma | MALME-3M melanoma | MOLT-4 leukemia | NCI-H226 lung | NCI-H23 lung | NCI-H460 lung | NCI-H522 lung | OVCAR-3 ovarian | OVCAR-4 ovarian | OVCAR-5 ovarian | OVCAR-8 ovarian | RPMI-8226 leukemia | RXF 393 renal | SF-268 CNS | SF-295 CNS | SF-539 CNS | SK-MEL-2 melanoma | SK-MEL-28 melanoma | SK-MEL-5 melanoma | SK-OV-3 ovarian | SN12C renal | SNB-19 CNS | SNB-75 CNS | SNB-78 CNS | TK-10 renal | U251 CNS | UACC-257 melanoma | UACC-62 melanoma | UO-31 renal

COc1ccc(/C=C2\C(=O)N(C(=O)Cc3ccccc3)N=C2C)cc1OC
> 100 µM: 786-0 renal | A549 NSCLC | ACHN renal | CAKI-1 renal | CCRF-CEM leukemia | COLO 205 colon | DMS 114 small cell lung | DMS 273 small cell lung | EKVX NSCLC | HCC-2998 colon | HCT-116 colon | HCT-15 colon | HL-60(TB) leukemia | HOP-18 NSCLC | HOP-62 NSCLC | HT29 colon | K-562 leukemia | KM12 colon | LOX IMVI melanoma | M14 melanoma | M19-MEL melanoma | MALME-3M melanoma | MOLT-4 leukemia | NCI-H226 lung | NCI-H23 lung | NCI-H522 lung | OVCAR-3 ovarian | OVCAR-4 ovarian | OVCAR-5 ovarian | OVCAR-8 ovarian | RPMI-8226 leukemia | SF-268 CNS | SF-295 CNS | SF-539 CNS | SK-MEL-2 melanoma | SK-MEL-28 melanoma | SN12C renal | SNB-19 CNS | SNB-75 CNS | SNB-78 CNS | SR leukemia | SW-620 colon | TK-10 renal | UACC-257 melanoma | UO-31 renal | XF 498 CNS
